# Patent US20050085546A1, “Method of inducing differentiation of dendritic cells” (Council of Scientific & Industrial Research, priority 2003, published 2005)
# Assays:
# BM leukocyte precursors [1] = assay: Viability of stimulated BM leukocyte precursor cultures; format: cell-based, BALB/c mouse; design: Viability, % of Viable cells: reference not given here
# Procedure: (§1) The fine suspension obtained above was transferred into a 50 ml sterile centrifuge tube and centrifuged for 10 minutes at 1200 rpm. […] The pellets were washed using HBSS wash buffer and then centrifuged again for 10 minutes at 1200 rpm. This process was repeated for one more time. […] This suspension was then finally passed through a MACS (Magnetic Activated Cell Sorting) column to get essentially and predominately leukocyte precursors.
# BM leukocyte precursors [2] = assay: Differentiation of dendritic cells from bone marrow leukocyte precursors; cell surface marker expression by flow cytometry; format: cell-based, BALB/c mouse; details: for differentiation of dendritic cells (in words): from BM precursors
# Procedure: Cells were stained for the surface levels of indicated markers. Plates A-D represent surface levels of CD80, CD54, CD11c and H-2D (MHC class 1), respectively. […] The Green line represents staining of stimulated cells while the black line depicts staining of unstimulated cells.
# as §1
# In order to evaluate the upregulation of various cell surface markers associated with Dendritic cells, flow cytometry on the cells stimulated with GM-CSF or the compound was carried out using fluorescent labeled antibodies to various molecules (CD11c, I-A^d, CD80, CD86, H2-D^d, CD54, CD40).
# The hind limbs of the mouse were removed carefully and placed in a Petri dish with HBSS (Hanks Balanced Saline Solution) wash buffer. The tibias and femurs were cleared of all surrounding and attached tissues. This was followed by chipping the ends of bones. The bone marrow was flushed out by injecting HBSS solution into the bone with the help of a hypodermal syringe (No. 26 gauge). The bone marrow was finally made into a fine suspension by syringing in and out of the fluid several times using an 18 gauge syringe needle.
# [3] = test system: osteoclast precursors (murine bone marrow cells, M-CSF + RANKL); assay: In vitro osteoclastogenesis assay (TRAP staining); format: cell-based, Balb/c mice; details: for % inhibition of osteoclast formation / Number of TRAP-positive multinuclear cells/well of 96 well plate (Mean ± SEM): 6 days
# Excerpt: Culture of murine bone marrow cells in the presence of M-CSF and RANKL induces the formation of osteoclasts, which were detected as TRAP-positive cells. […] Values given are the mean±SD of five separate experiments.
# For in vitro osteoclastogenesis bone marrow cells were isolated from 5- to 8-wk-old Balb/c mice. Mice were sacrificed by cervical dislocation and femora and tibiae were aseptically removed and dissected free of adherent soft tissues. The bone ends were cut, and the marrow cavity was flushed out with medium MEM from one end of the bone using a sterile 21-gauge needle. The bone marrow suspension was carefully agitated with a plastic Pasteur pipette to obtain a single-cell suspension. The cells were washed twice and resuspended (10^6 cells/ml) in aMEM containing 10% FBS. […] After 24 h, nonadherent cells were harvested and layered on a Ficoll-Hypaque gradient. Cells at the gradient interface were collected, washed and resuspended (5×10^5/ml) in AMEM containing 10% FBS. In this study, we called these stromal cell-free, M-CSF-dependent, nonadherent cells as osteoclast precursors. These osteoclast precursors were added to 96-well plates (100 μl/well) containing plastic coverslips. Each well received further 100 μl of medium containing M-CSF (30 ng/ml), RANKL (30 ng/ml) without or with various concentrations of purified compound. Cultures were fed every 2-3 days and after incubation for 6 days osteoclast formation was evaluated by tartrate-resistant acid phosphatase (TRAP) staining. The number of TRAP-positive multinucleated cells (MNCs) containing 3 or more nuclei was scored.
# TRAP is preferentially expressed at high levels in osteoclast and is considered, especially in the mouse, to be an osteoclast marker. Cytochemical staining for TRAP is widely used for identifying the osteoclasts in vivo and in vitro. It is claimed to be specific for osteoclasts in bone. After incubation, cells on cover slips were washed in PBS, fixed in 10% formalin for 10 min and stained for acid phosphatase in the presence of 0.05 M sodium tartrate. The substrate used was napthol AS-BI phosphate. Only those cells that were strongly TRAP-positive (dark red) counted by light microscopy.
# [4] = test system: osteoclast precursors (murine bone marrow cells, M-CSF + RANKL); assay: In vitro osteoclastogenesis assay (TRAP staining); format: cell-based, Balb/c mice; details: M-CSF + RANKL + compound 5.0 μg/ml, 6 days
# [5] = M-CSF + RANKL + compound 0.5 μg/ml
# [6] = M-CSF + RANKL + compound 1.5 μg/ml
# [7] = M-CSF + RANKL + compound 3.0 μg/ml
# [8] = M-CSF + RANKL + compound 5.0 μg/ml
# [9] = Table B, concentration not given
# [10] = Table A, 15 ng/ml GM-CSF or 50 micro gram per ml synthetic compound, 48 h
molecule,measurement,setting,value
"O=C([O-])CC[C@H](NS(=O)(=O)[O-])C(=O)[O-].O=C([O-])CC[C@H](NS(=O)(=O)[O-])C(=O)[O-].[Ca+2].[Ca+2].[Ca+2] [compound 1, L-glutamyl-N-sulphonic acid, Ca salt]",viability of the cultures at the end of the incubation period,"BM leukocyte precursors [1]; 200 mM, 48 h",more than 99%
same,viability of the cultures at the end of the incubation period,"BM leukocyte precursors [1]; 50 micro gram per ml, 48 h",> 99%
same,"concentration of maximum up regulation of cell surface densities of CD11c, CD80, CD54",BM leukocyte precursors [2]; BM leukocyte precursors incubated with different concentrations,200 mM
same,differentiation of dendritic cells (in words),BM leukocyte precursors [2]; listed as Compound I,Induces Differentiation of Dendritic Cells
same,differentiation of dendritic cells (in words),BM leukocyte precursors [2]; listed as the compound,induces the differentiation of DCs from BM precursors
same,% inhibition of osteoclast formation,[3]; [5],21.01%
same,Number of TRAP-positive multinuclear cells/well of 96 well plate (Mean ± SEM),[3]; [5],109.67 ± 9.79 cells/well
same,% inhibition of osteoclast formation,[3]; [6],62.19%
same,Number of TRAP-positive multinuclear cells/well of 96 well plate (Mean ± SEM),[3]; [6],52.17 ± 6.42 cells/well
same,% inhibition of osteoclast formation,[3]; [7],89.36%
same,Number of TRAP-positive multinuclear cells/well of 96 well plate (Mean ± SEM),[3]; [7],14.67 ± 1.98 cells/well
same,% inhibition of osteoclast formation,[3]; [8],97.94%
same,inhibition in the number of osteoclast cells generated (in words),[3]; increasing dose,dose dependent inhibition
same,Number of TRAP-positive multinuclear cells/well of 96 well plate (Mean ± SEM),[4],2.83 ± 1.05 cells/well
"O=C(O)CC[C@H](NS(=O)(=O)O)C(=O)O [compound 3, L-glutamyl-N-sulphonic acid]","Viability, % of Viable cells",BM leukocyte precursors [1]; [9],115%
same,Number of TRAP-positive multinuclear cells/well of 96 well plate (Mean ± SEM),[3]; [5],154.67 ± 8.43 cells/well
same,Number of TRAP-positive multinuclear cells/well of 96 well plate (Mean ± SEM),[3]; [6],150.33 ± 8.82 cells/well
same,% inhibition of osteoclast formation,[3]; [7],23.23%
same,Number of TRAP-positive multinuclear cells/well of 96 well plate (Mean ± SEM),[3]; [7],112.67 ± 8.63 cells/well
same,% inhibition of osteoclast formation,[3]; [8],25.08%
same,Number of TRAP-positive multinuclear cells/well of 96 well plate (Mean ± SEM),[4],110.00 ± 6.72 cells/well
GM-CSF: the growth factor that is conventionally used to generate DCs in vitro,"Viability, % of Viable cells",BM leukocyte precursors [1]; [10],180%
same,"Viability, % of Viable cells",BM leukocyte precursors [1]; [9],180%
same,"Fold increase in Relative MFI over unstimulated control, CD11c",BM leukocyte precursors [2]; [10],5.0 fold
same,"Fold increase in Relative MFI over unstimulated control, CD54",BM leukocyte precursors [2]; [10],4.0 fold
same,"Fold increase in Relative MFI over unstimulated control, CD80",BM leukocyte precursors [2]; [10],3.3 fold
same,"Fold increase in Relative MFI over unstimulated control, H-2D^d",BM leukocyte precursors [2]; [10],2.0 fold
same,"Fold increase in Relative MFI over unstimulated control, CD11c",BM leukocyte precursors [2]; [9],5.0 fold
same,"Fold increase in Relative MFI over unstimulated control, CD54",BM leukocyte precursors [2]; [9],4.0 fold
same,"Fold increase in Relative MFI over unstimulated control, CD80",BM leukocyte precursors [2]; [9],3.3 fold
same,"Fold increase in Relative MFI over unstimulated control, H-2D^d",BM leukocyte precursors [2]; [9],2.0 fold
